The subject of the experiment is P388 leukemia ip, CD2F1 mice, survival T/C. The experiment is described as follows: NCI In Vivo Anticancer Drug Screen. Data for tumor model P388 Leukemia (intraperitoneal) in CD2F1 (CDF1) mice. Conditions: endpoint: median survival time, higher = longer survival. An outline of the steps: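 Mice carrying the transplanted tumor received test compound or vehicle. Survival was recorded in each group, and the value is the treated-group measurement divided by that of the vehicle-treated control group.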

[1] abbreviates: dose: 50.0 mg/kg/injection, schedule: Q01DX005 (ip), vehicle: saline with Tween-80.
Where [2] appears, read: dose: 100.0 mg/kg/injection, schedule: Q01DX005 (ip), vehicle: saline with Tween-80.
[3] abbreviates: dose: 200.0 mg/kg/injection, schedule: Q01DX005 (ip), vehicle: saline with Tween-80.
[4] abbreviates: dose: 50.0 mg/kg/injection, schedule: Q01DX009 (ip), vehicle: saline with Tween-80.
Where [5] appears, read: dose: 100.0 mg/kg/injection, schedule: Q01DX009 (ip), vehicle: saline with Tween-80.

The structures appear in SMILES notation. Values joined by “and” are separate entries in the source; they are usually repeats but may differ in a detail not shown here. Equal entries are not always repeated. Toxic doses and inconclusive results are not listed.

Consider `CS(=O)(=O)CS(=O)(=O)OCCCl`, for which the T/C (dose: 6.25 mg/kg/injection, schedule: Q01DX005 (ip), vehicle: dextrose) is 109 % of control; the T/C (dose: 6.25 mg/kg/injection, schedule: Q01DX005 (ip), vehicle: distilled water + Tween-80) was 114 % of control; the T/C (dose: 6.25 mg/kg/injection, schedule: Q01DX005 (iv), vehicle: dextrose) was 109 % of control; the T/C (dose: 10.0 mg/kg/injection, schedule: Q01DX005 (ip), vehicle: saline) was 121 % of control; the T/C (dose: 12.5 mg/kg/injection, schedule: Q01DX005 (iv), vehicle: dextrose) is 118 % of control; the T/C (dose: 22.0 mg/kg/injection, schedule: Q01DX005 (ip), vehicle: saline) was 166 % of control. Also, the T/C was 154 % of control (dose: 25.0 mg/kg/injection, schedule: Q01DX005 (ip), vehicle: dextrose); 230 % of control (dose: 33.0 mg/kg/injection, schedule: Q01DX005 (ip), vehicle: other); 198 % of control (dose: 33.0 mg/kg/injection, schedule: Q01DX005 (ip), vehicle: saline); 201 % of control (dose: 33.0 mg/kg/injection, schedule: Q01DX005 (ip), vehicle: water); 209 % of control (dose: 33.5 mg/kg/injection, schedule: Q01DX005 (ip), vehicle: saline); 241 % of control and 330 % of control (dose: 50.0 mg/kg/injection, schedule: Q01DX005 (ip), vehicle: dextrose). In addition, the T/C is, setting by setting: (dose: 50.0 mg/kg/injection, schedule: Q01DX005 (ip), vehicle: distilled water + Tween-80) 250 % of control; (dose: 50.0 mg/kg/injection, schedule: Q01DX005 (ip), vehicle: other) 588 % of control; (dose: 50.0 mg/kg/injection, schedule: Q01DX005 (ip), vehicle: saline) 245 % of control and 267 % of control; (dose: 50.0 mg/kg/injection, schedule: Q01DX005 (ip), vehicle: water) 254 % of control and 285 % of control; (dose: 50.0 mg/kg/injection, schedule: Q01DX005 (iv), vehicle: dextrose) 196 % of control; (dose: 75.0 mg/kg/injection, schedule: Q01DX005 (ip), vehicle: dextrose) 582 % of control. For the same compound, the T/C is, setting by setting: (dose: 75.0 mg/kg/injection, schedule: Q01DX005 (ip), vehicle: other) 588 % of control; (dose: 75.0 mg/kg/injection, schedule: Q01DX005 (ip), vehicle: saline) 156 % of control; (dose: 75.0 mg/kg/injection, schedule: Q01DX005 (ip), vehicle: water) 294 % of control; (dose: 100.0 mg/kg/injection, schedule: Q01DX005 (ip), vehicle: dextrose) 535 % of control; (dose: 100.0 mg/kg/injection, schedule: Q01DX005 (ip), vehicle: distilled water + Tween-80) 535 % of control; (dose: 100.0 mg/kg/injection, schedule: Q01DX005 (ip), vehicle: other) 588 % of control. For the same compound, the T/C (dose: 100.0 mg/kg/injection, schedule: Q01DX005 (ip), vehicle: saline) is 151 % of control and 200 % of control; the T/C (dose: 100.0 mg/kg/injection, schedule: Q01DX005 (ip), vehicle: water) is 294 % of control.

With `C=C(Cl)C(=NC(C)C)Nc1ccccc1C`, the T/C is 112 % of control (dose: 0.79 mg/kg/injection, schedule: Q01DX005 (ip), vehicle: Klucel (hydroxypropylcellulose) (HPC)); 100 % of control and 107 % of control (dose: 1.56 mg/kg/injection, schedule: Q01DX005 (ip), vehicle: Klucel (hydroxypropylcellulose) (HPC)); 107 % of control and 110 % of control and 115 % of control (dose: 3.12 mg/kg/injection, schedule: Q01DX005 (ip), vehicle: Klucel (hydroxypropylcellulose) (HPC)); 118 % of control and 86 % of control (dose: 6.25 mg/kg/injection, schedule: Q01DX005 (ip), vehicle: Klucel (hydroxypropylcellulose) (HPC)); 102 % of control and 114 % of control (dose: 12.5 mg/kg/injection, schedule: Q01DX005 (ip), vehicle: Klucel (hydroxypropylcellulose) (HPC)).

With `CC(C)CN(CC(C)C)c1nn[nH]n1`, the T/C runs as follows: under setting [1], 103 % of control; under setting [2], 100 % of control; under setting [3], 103 % of control.

For the compound `BrC=C1c2ccccc2-c2ccccc21`, the T/C (dose: 100.0 mg/kg/injection, schedule: Q04DX003 (ip), vehicle: Klucel (hydroxypropylcellulose) (HPC)) is 100 % of control; the T/C (dose: 200.0 mg/kg/injection, schedule: Q04DX003 (ip), vehicle: Klucel (hydroxypropylcellulose) (HPC)) is 91 % of control; the T/C (dose: 400.0 mg/kg/injection, schedule: Q04DX003 (ip), vehicle: Klucel (hydroxypropylcellulose) (HPC)) is 102 % of control.

On to `CCCCCCC(=O)/C=C/c1cccc(OC)c1OC`, for which the T/C under setting [4] is 99 % of control; the T/C under setting [5] is 107 % of control; the T/C (dose: 200.0 mg/kg/injection, schedule: Q01DX009 (ip), vehicle: saline with Tween-80) is 105 % of control.

As to `Nc1ccc2ccc(O)cc2c1`, the T/C by setting is: (dose: 12.5 mg/kg/injection, schedule: Q01DX009 (ip), vehicle: saline with Tween-80) 100 % of control; (dose: 25.0 mg/kg/injection, schedule: Q01DX009 (ip), vehicle: saline with Tween-80) 100 % of control; under setting [4], 100 % of control; under setting [5], 98 % of control.

As to `C=C1CC2(CCOc3ccc(Cl)cc32)OC1=O` (centres undefined), the T/C runs as follows: (dose: 25.0 mg/kg/injection, schedule: Q04DX003 (ip), vehicle: saline with Tween-80) 110 % of control; (dose: 50.0 mg/kg/injection, schedule: Q04DX003 (ip), vehicle: saline with Tween-80) 118 % of control; (dose: 100.0 mg/kg/injection, schedule: Q04DX003 (ip), vehicle: saline with Tween-80) 101 % of control and 116 % of control; (dose: 200.0 mg/kg/injection, schedule: Q04DX003 (ip), vehicle: saline with Tween-80) 101 % of control.

Regarding `Cc1nn(-c2ccccc2)c2c1S(=O)(=O)c1ccccc1-2`, the T/C under setting [1] was 91 % of control, the T/C under setting [2] was 89 % of control and the T/C under setting [3] is 88 % of control.

As for `CCOC(=O)CNC(=O)c1cc2c(cn1)[nH]c1ccccc12`, the T/C (dose: 60.0 mg/kg/injection, schedule: Q01DX005 (ip), vehicle: saline with Tween-80) was 93 % of control and the T/C (dose: 120.0 mg/kg/injection, schedule: Q01DX005 (ip), vehicle: saline with Tween-80) is 86 % of control.

Consider `CCC(C)C(=O)OC1CCC=C2C=CC(C)C(CCC3CC(O)CC(=O)O3)C21` (centres undefined), for which the T/C is, setting by setting: (dose: 15.0 mg/kg/injection, schedule: Q01DX009 (ip), vehicle: saline) 107 % of control; (dose: 30.0 mg/kg/injection, schedule: Q01DX009 (ip), vehicle: saline) 100 % of control; (dose: 60.0 mg/kg/injection, schedule: Q01DX009 (ip), vehicle: saline) 100 % of control.

Consider `C=C1CC2(CCCCC2C)OC1=O` (centres undefined), for which the T/C was 101 % of control (dose: 100.0 mg/kg/injection, schedule: Q01DX001 (ip), vehicle: saline); 101 % of control (dose: 200.0 mg/kg/injection, schedule: Q01DX001 (ip), vehicle: saline); 100 % of control (dose: 400.0 mg/kg/injection, schedule: Q01DX001 (ip), vehicle: saline).

Regarding `Clc1ccc2c(c1)nc(-c1ccccn1)n2CCc1ccccn1`, the T/C by setting is: (dose: 25.0 mg/kg/injection, schedule: Q01DX005 (ip), vehicle: Klucel (hydroxypropylcellulose) (HPC)) 99 % of control; (dose: 50.0 mg/kg/injection, schedule: Q01DX005 (ip), vehicle: Klucel (hydroxypropylcellulose) (HPC)) 104 % of control; (dose: 100.0 mg/kg/injection, schedule: Q01DX005 (ip), vehicle: Klucel (hydroxypropylcellulose) (HPC)) 101 % of control; (dose: 200.0 mg/kg/injection, schedule: Q01DX005 (ip), vehicle: Klucel (hydroxypropylcellulose) (HPC)) 93 % of control.

Consider `O=C1CSC(c2c(Cl)cccc2[N+](=O)[O-])N1c1nncs1` (centres undefined), for which the T/C reads like this: (dose: 100.0 mg/kg/injection, schedule: Q04DX002 (ip), vehicle: saline with Tween-80) 87 % of control; (dose: 200.0 mg/kg/injection, schedule: Q04DX002 (ip), vehicle: saline with Tween-80) 87 % of control; (dose: 400.0 mg/kg/injection, schedule: Q04DX002 (ip), vehicle: saline with Tween-80) 92 % of control.

With `CN1C(=O)c2ccccc2N=CN1C(=O)Nc1ccccc1`, the T/C is 94 % of control under setting [1], 90 % of control under setting [2] and 88 % of control under setting [3].

As for `Cc1ccc(C)c([N+](=O)[O-])c1C(=O)O`, the T/C is, setting by setting: (dose: 100.0 mg/kg/injection, schedule: Q04DX003 (ip), vehicle: saline + alcohol) 98 % of control; (dose: 200.0 mg/kg/injection, schedule: Q04DX003 (ip), vehicle: saline + alcohol) 98 % of control.

Take `CCOC(CSc1ncnc2nc[nH]c12)OCC`: the T/C (dose: 50.0 mg/kg/injection, schedule: Q01DX009 (ip), vehicle: saline) was 100 % of control; the T/C (dose: 100.0 mg/kg/injection, schedule: Q01DX009 (ip), vehicle: saline) was 96 % of control; the T/C (dose: 200.0 mg/kg/injection, schedule: Q01DX009 (ip), vehicle: saline) is 112 % of control.

Values taken from PubChem BioAssay AID330 (DTP/NCI, 2004).
